In brackets after ≈: the same amount, converted by molar mass. Several values for one entry are separate records, joined by “and”; a condition that tells them apart may be missing. Equal values may be shown once. Read-outs that look alike come from different tables or passages of the source.
Columns and labels:
[1] = system: MV411 cells; experiment: MTS cytotoxicity assay against MV411 cells; format: cell-based
Experimental: (§1) The obtained compounds were tested in biological experiments to measure their potency in inhibiting the growth of AML cells and in their degradation of CDK9. These measurements are reported as half-maximum growth inhibitory and half-maximum degradation concentrations, IC50s and DC50s, respectively. Maximum percent degradation (Dmax) values were also obtained during the CDK9 degradation assessments. The common MTS assay was used to acquire the IC50 values, while the DC50 values were obtained using an automated western blot experiment. These values are presented in Table 2, along with pIC50 (log(nM IC50)) to more accurately reflect the differences/lack thereof in in vitro cytotoxicity. The notation “N:N*” represents the number of linker atoms on each side of the rigid triazole ring for a given degrader. Predicted log D values, calculated using the ChemAxon […], are also provided for each degrader. To characterize the physicochemical properties of the new degrader series, two additional assays were performed: a kinetic aqueous solubility assay and the chromatographic log D experiment described earlier. Aqueous solubility is shown in μM while experimentally determined log D is shown as log k′80. Details regarding the execution of each experiment are provided below.

[2] = Chromatographic log D determination (log k′80); format: physicochemical; conditions: chromatographic log D, PLRP-S column, pH 7.72
Experimental: Chromatographic Log D Determination. Test samples were prepared from 10 mM stock solutions in DMSO, to make 122 μM solutions in acetonitrile. Retention times were determined on a Shimadzu High Performance Liquid Chromatography (HPLC) system with Agilent PLRP-S column, 100 Å, 5 um particle size, 50×4.6 mm (part no.: PL1512-1500) with 1 mL/min flow rate. A 65 mM aqueous solution of ammonium acetate was prepared in water and diluted with acetonitrile to give 0.1% ammonium acetate 20:80 acetonitrile solution with pH 7.72. Eluents were detected with UV spectrophotometry at 337 nm. As a standard set, the retention times of β-estradiol, nifedipine, quinoline, phenol and 2-nitrophenol were determined (log k′80) and the dead time was extrapolated based on the reported log k′80 values originally reported by Caron et. al (log k′80*). The average value of the dead time for the standard set was 0.3001 minutes. Therefore, for consistency, 0.3 minutes was used as the dead time for all test samples. Experiments were performed in triplicate with a maximum percent standard deviation of 6.85%.

[3] = biological target: T1, CDK9 (Homo sapiens, UniProt P50750+Q96SW2); experiment: CDK9 degradation, automated western blot, triazole-containing AT7519 degraders (MV411); format: cell-based; conditions: for DC50: CDK9 degradation, MV411 cells; for Dmax (%) / Dmax: maximum percent CDK9 degradation; for Dmax: MV4-11
T1 construct: endogenous in cells
T1 sequence (P50750 whole entry): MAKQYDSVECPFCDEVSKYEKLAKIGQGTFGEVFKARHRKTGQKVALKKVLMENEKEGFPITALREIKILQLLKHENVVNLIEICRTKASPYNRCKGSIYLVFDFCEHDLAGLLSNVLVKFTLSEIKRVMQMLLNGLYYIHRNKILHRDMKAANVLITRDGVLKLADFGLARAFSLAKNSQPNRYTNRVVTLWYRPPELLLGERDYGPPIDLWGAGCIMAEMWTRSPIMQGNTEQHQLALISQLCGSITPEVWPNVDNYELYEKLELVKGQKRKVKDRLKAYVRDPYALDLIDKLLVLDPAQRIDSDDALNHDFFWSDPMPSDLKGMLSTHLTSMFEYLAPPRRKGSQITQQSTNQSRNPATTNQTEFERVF
T1 sequence (O60563 whole entry partner): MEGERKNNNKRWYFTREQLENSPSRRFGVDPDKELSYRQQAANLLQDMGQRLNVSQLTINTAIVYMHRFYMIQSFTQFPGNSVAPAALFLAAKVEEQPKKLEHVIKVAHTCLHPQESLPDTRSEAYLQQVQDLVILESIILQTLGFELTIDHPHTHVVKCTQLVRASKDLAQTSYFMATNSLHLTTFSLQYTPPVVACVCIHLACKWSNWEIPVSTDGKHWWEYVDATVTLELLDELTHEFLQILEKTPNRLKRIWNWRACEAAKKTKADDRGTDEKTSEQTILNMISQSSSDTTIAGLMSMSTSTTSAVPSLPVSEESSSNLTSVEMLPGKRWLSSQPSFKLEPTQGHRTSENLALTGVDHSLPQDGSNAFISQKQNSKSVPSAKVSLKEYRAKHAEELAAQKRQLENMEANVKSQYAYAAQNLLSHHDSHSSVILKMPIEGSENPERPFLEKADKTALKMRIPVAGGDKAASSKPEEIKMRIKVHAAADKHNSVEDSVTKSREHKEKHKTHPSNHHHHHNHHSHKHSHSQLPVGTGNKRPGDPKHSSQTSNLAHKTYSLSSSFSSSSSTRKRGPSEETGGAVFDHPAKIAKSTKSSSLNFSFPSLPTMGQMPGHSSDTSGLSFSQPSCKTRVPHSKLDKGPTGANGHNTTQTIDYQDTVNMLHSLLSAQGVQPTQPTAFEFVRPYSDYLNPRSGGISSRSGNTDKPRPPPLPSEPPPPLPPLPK
T1 sequence (Q96SW2 whole entry): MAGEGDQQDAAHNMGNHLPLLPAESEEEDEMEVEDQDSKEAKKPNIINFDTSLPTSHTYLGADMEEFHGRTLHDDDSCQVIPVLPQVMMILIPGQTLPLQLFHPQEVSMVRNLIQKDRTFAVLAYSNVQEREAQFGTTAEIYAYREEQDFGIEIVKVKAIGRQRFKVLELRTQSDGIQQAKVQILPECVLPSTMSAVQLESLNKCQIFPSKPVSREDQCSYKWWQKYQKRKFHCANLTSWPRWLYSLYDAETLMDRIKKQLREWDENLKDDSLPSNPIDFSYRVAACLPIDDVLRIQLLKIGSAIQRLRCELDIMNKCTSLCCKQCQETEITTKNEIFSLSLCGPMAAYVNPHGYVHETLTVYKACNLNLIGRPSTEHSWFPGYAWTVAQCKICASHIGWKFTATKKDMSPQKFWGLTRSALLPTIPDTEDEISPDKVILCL
T1 sequence (Q16531 whole entry partner): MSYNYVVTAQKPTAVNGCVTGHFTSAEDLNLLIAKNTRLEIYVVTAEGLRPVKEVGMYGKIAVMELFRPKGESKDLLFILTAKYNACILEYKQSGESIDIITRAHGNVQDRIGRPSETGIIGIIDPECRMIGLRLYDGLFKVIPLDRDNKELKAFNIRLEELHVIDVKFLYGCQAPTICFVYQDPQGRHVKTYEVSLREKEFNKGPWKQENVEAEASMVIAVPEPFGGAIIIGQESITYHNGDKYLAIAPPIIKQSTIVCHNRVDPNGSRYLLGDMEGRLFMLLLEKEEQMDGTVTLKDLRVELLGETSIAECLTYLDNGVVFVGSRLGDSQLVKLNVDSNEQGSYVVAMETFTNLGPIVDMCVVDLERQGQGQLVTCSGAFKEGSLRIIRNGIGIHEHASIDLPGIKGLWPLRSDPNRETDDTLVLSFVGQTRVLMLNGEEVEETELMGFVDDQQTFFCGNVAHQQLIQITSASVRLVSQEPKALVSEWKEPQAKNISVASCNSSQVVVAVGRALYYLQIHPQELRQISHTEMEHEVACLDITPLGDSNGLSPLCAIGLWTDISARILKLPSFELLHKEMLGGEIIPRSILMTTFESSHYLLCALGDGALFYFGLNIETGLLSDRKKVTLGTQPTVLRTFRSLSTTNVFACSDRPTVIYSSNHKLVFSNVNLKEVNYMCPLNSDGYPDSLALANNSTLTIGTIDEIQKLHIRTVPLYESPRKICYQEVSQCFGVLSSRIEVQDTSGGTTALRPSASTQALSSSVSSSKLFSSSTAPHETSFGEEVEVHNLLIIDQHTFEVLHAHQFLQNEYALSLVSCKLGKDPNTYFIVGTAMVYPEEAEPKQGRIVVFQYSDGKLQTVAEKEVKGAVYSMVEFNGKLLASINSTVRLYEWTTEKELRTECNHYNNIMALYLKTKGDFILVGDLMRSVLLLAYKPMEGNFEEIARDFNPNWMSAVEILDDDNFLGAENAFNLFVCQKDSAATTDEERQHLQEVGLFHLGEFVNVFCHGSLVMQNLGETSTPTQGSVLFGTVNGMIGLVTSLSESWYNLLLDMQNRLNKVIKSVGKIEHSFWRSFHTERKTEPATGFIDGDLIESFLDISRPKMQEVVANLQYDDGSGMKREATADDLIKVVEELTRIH
Experimental: as §1

[4] = pH 7.4
Experimental: (§3) Kinetic Solubility Assay. Kinetic solubility (KS) was measured according to Millipore protocol PC2445 EN00. Test compounds were weighed and diluted with DMSO to 10 mM. From the stock solutions as well as blank (100% DMSO) was taken 17.5 μL and diluted to 500 μM with 332.5 μL of 100 mM phosphate Buffered Saline (PPBS) at pH 7.4 in a 96-well quartz plate. From the 500 μM solutions was taken 150 μL and dispensed into a 96-well Millipore filter plate (Product number: MSSLBPC10). In the quartz plate, serial dilutions were performed down to 0.5 μM using the 100 mM PBS solution, leaving 100 μL of each test sample at 11 different concentrations, representing standards. These steps were performed in triplicate, at minimum, for each test compound. Both plates were shaken on an orbital shaker at 150 rpm for 1.5 hours. The contents of the filter plate were filtered and 100 μL of the filtrate from each well was dispensed into the quartz plate containing standards. The quartz plate was then analyzed using a UV plate reader where absorbance was measured at the relevant wavelength for each compound. After blank subtraction, for each test sample, solubility was determined based on the optical density of filtered samples and the equations derived from the corresponding linear standard curve.

[5] = Kinetic solubility assay; conditions: kinetic solubility, PBS pH 7.4; for solubility at 1.5 h: phosphate buffered saline, pH 7.4, aqueous buffer, kinetic from dmso stock, Solubility (μM)
Experimental: as §3

[6] = biological target: T1, CDK9; experiment: CDK9 degradation potency (DC50) of VIP152-based degraders; format: cell-based; conditions: VIP152-based series
Text: (§2) Through amide coupling using I-ethyl-3-carbodiimide hydrochloride (EDC.HCl), the alkynyl derivatives of 4.16, 4.29 and 4.30 were synthesized. Using these VIP152-derivatives, degraders 4.31, 4.33 and 4.34 were synthesized using click chemistry. Degrader 4.32 was also synthesized using amide coupling conditions with (1-[Bis([…])methylene]-1H-1,2,3-triazolo[4,5-b]pyridinium 3-oxide hexafluorophosphate (HATU) and the carboxylic acid 4.28. Scheme 7 illustrates the synthesis of this initial series. The series was evaluated for cytotoxicity against MOLM13 cells (IC50) and for their CDK9 degradation potency (DC50). The results are provided in Table 3.

[7] = system: MOLM13 cells; experiment: Protein shift experiment, cytotoxicity in FBS vs human serum, MOLM13; format: cell-based
Text: In order to determine the suitability of the lead compounds for advanced biological studies, the four degraders (4.49, 4.62, 4.72 and 4.78) were selected for a protein-shift analysis due to their higher potency and solubility.

[8] = system: MOLM13 cells; experiment: Cytotoxicity against MOLM13 cells; format: cell-based
Text: as §2

[9] = growth inhibition, MV411 cells, MTS, read-out: IC50
[10] = Homo sapiens, MV4-11, defined as log(nM IC50), MV411, read-out: pIC50 (converted)
[11] = Homo sapiens, MV4-11, growth inhibition, MV411 cells, MTS, read-out: IC50
[12] = Homo sapiens, MOLM-13, MOLM13, fetal bovine serum, read-out: IC50 (μM) FBS
[13] = MOLM-13, MOLM13, human serum, read-out: IC50 (μM) HS
[14] = Homo sapiens, MOLM-13, cytotoxicity, MOLM13 cells, read-out: IC50
[15] = MOLM13, fetal bovine serum, read-out: IC50 (μM) FBS
[16] = MOLM13, human serum, read-out: IC50 (μM) HS
[17] = cytotoxicity, MOLM13 cells, read-out: IC50

Compound | pIC50 ([1]; defined as log(nM IC50), MV411) | IC50 [1, 9] | logk′80 [2] | DC50 [3] | Dmax (%) [3] | Solubility [4] | solubility at 1.5 h [5] | DC50 [6] | IC50 [7, 12] | IC50 [7, 13] | IC50 [8, 14] | Solubility [5] | also measured
O=C1CCC(N2C(=O)c3cccc(OCCCCn4cc(CCCCN5CCC(NC(=O)c6n[nH]cc6NC(=O)c6c(Cl)cccc6Cl)CC5)nn4)c3C2=O)C(=O)N1 (centres unmarked) [Compound 4.7a, 4-(2,6-dichlorobenzamido)-N-(1-(4-(1-(4-((2-(2,6-dioxopiperidin-3-yl)-1,3-dioxoisoindolin-4-yl)oxy)buty)-1H-1,2,3-triazol-4-yl)butyl)piperidin-4-yl)-1H-pyrazole-3-carboxamide] | 2.4 | 241 nM | 0.100 | 130 nM | 67.5% | 12.4 µM (≈ 10.3 µg/mL) | – | – | – | – | – | – | –
O=C1CCC(N2C(=O)c3cccc(OCCCn4cc(CCCCCN5CCC(NC(=O)c6n[nH]cc6NC(=O)c6c(Cl)cccc6Cl)CC5)nn4)c3C2=O)C(=O)N1 (centres unmarked) [Compound 4.7c, 4-(2,6-dichlorobenzamido)-N-(1-(5-(1-(3-((2-(2,6-dioxopiperidin-3-yl)-1,3-dioxoisoindolin-4-yl)oxy)propyl)-11H-1,2,3-triazol-4-yl)pentyl)piperidin-4-yl)-1H-pyrazole-3-carboxamide] | 2.3 | 194 nM | 0.106 | 404 nM | 58.6% | 31.3 µM (≈ 26.1 µg/mL) | – | – | – | – | – | – | –
O=C1CCC(N2C(=O)c3cccc(OCCCCn4cc(CCCCCN5CCC(NC(=O)c6n[nH]cc6NC(=O)c6c(Cl)cccc6Cl)CC5)nn4)c3C2=O)C(=O)N1 (centres unmarked) [Compound 4.8b, 4-(2,6-dichlorobenzamido)-N-(1-(5-(1-(4-((2-(2,6-dioxopiperidin-3-yl)-1,3-dioxoisoindolin-4-yl)oxy)butyl)-1H-1,2,3-triazol-4-yl)pentyl)piperidin-4-yl)-1H-pyrazole-3-carboxanmide] | 2.1 | 130 nM | 0.112 | 951 nM | 68.5% | 13.2 µM (≈ 11.2 µg/mL) | – | – | – | – | – | – | –
O=C1CCC(N2C(=O)c3cccc(OCCCn4cc(CCCCCCN5CCC(NC(=O)c6n[nH]cc6NC(=O)c6c(Cl)cccc6Cl)CC5)nn4)c3C2=O)C(=O)N1 (centres unmarked) [Compound 4.8c, 4-(2,6-dichlorobenzamido)-N-(1-(6-(1-(3-((2(2,6-dioxopiperidin-3-yl)-1,3-dioxoisoindolin-4-yl)oxy)propyl)-1H-1,2,3-triazol-4-yl)hexyl)piperidin-4-yl)-1H-pyrazole-3-carboxamide] | – | – | 0.116 | 98.9 nM | – | – | 12.9 µM (≈ 10.9 µg/mL) | – | – | – | – | – | IC50 [1, 10]: 79.4 nM; IC50 [1, 11]: 71.3 nM; Dmax [3]: 75.3%
O=C1CCC(N2C(=O)c3cccc(OCCCCCCCn4cc(CCCCCCN5CCC(NC(=O)c6n[nH]cc6NC(=O)c6c(Cl)cccc6Cl)CC5)nn4)c3C2=O)C(=O)N1 (centres unmarked) [Compound 4.9a, 4-(2,6-dichlorobenzamido)-N-(1-(6-(1-(7-((2-(2,6-dioxopiperidine-3-yl)-1,3-dioxoisoindolin-4-yl)oxy)heptyl)-1H-1,2,3-triazol-4-yl)hexyl)piperidin-4-yl)-1H-pyrazole-3-carboxamide] | – | – | 0.184 | 74.6 nM | – | – | 2.38 µM (≈ 2.15 µg/mL) | – | – | – | – | – | IC50 [1, 10]: 79.4 nM; IC50 [1, 11]: 72.8 nM; Dmax [3]: 86.2%
COc1cc(F)ccc1-c1cc(Nc2cc(CS(C)(=O)=NC(=O)CCc3cn(CCOCCOCCOc4cccc5c4C(=O)N(C4CCC(=O)NC4=O)C5=O)nn3)ccn2)ncc1F (centres unmarked) [Compound 4.34, 3-(1-(2-(2-(2-((2-(2,6-dioxopiperidin-3-yl)-1,3-dioxoisoindolin-4-yl)oxy)ethoxy)ethoxy)ethyl)-1H-1,2,3-triazol-4-yl)-N-(((2-((5-fluoro-4-(4-fluoro-2-methoxyphenyl)pyridin-2-yl)amino)pyridin-4-yl)methyl)(methyl)(oxo)-16-sulfaneylidene)propenamide] | – | – | 0.13 and 0.16 | – | – | – | 5.2 µM (≈ 4.76 µg/mL) | 70 nM | 0.29 µM | 1.52 µM | 60 nM | – | –
COc1cc(F)ccc1-c1cc(Nc2cc(CS(C)(=O)=NC(=O)CN3CCN(Cc4cn(C5CN(C(=O)CNc6cccc7c6C(=O)N(C6CCC(=O)NC6=O)C7=O)C5)nn4)CC3)ccn2)ncc1F (centres unmarked) [Compound 4.49, 2-(4-((1-(1-((2-(2,6-dioxopiperidin-3-yl)-1,3-dioxoisoindolin-4-yl)glycyl)azetidin-3-yl)-1H-1,2,3-triazol-4-yl)methyl)piperazin-1-yl)-N-(((2-((5-fluoro-4-(4-fluoro-2-methoxyphenyl)pyridin-2-yl)amino)pyridin-4-yl)methyl)(methyl) (oxo)-16-sulfaneylidene) acetamide] | – | – | – | – | – | – | ~60 µM (≈ 58.8 µg/mL) | 220 nM | 0.67 µM | 1.24 µM | 420 nM | 58.2 µM (≈ 57 µg/mL) | IC50 ([8]; Homo sapiens, MOLM-13, text, MOLM13, read-out: potency): 420 nM
COc1cc(F)ccc1-c1cc(Nc2cc(CS(C)(=O)=NC(=O)C3CCCN(Cc4cn(C5CN(C(=O)CNc6cccc7c6C(=O)N(C6CCC(=O)NC6=O)C7=O)C5)nn4)C3)ccn2)ncc1F (centres unmarked) [Compound 4.62] | – | – | 0.11 | – | – | – | – | 150 nM | – | – | – | 13.8 µM (≈ 13.3 µg/mL) | IC50 [7, 15]: 0.49 µM; IC50 [7, 16]: 1.34 µM; IC50 [8, 17]: 360 nM
COc1cc(F)ccc1-c1cc(Nc2cc(CS(C)(=O)=NC(=O)CN3CCC(c4cn(CC(=O)N5CCN(CCCc6cccc7c6C(=O)N(C6CCC(=O)NC6=O)C7=O)CC5)nn4)CC3)ccn2)ncc1F (centres unmarked) [Compound 4.72, 2-(4-(1-(2-(4-(3-(2-(2,6-dioxopiperidin-3-yl)-1,3-dioxoisoindolin-4-yl)propyl)piperazin-1-yl)-2-oxoethyl)-1H-1,2,3-triazol-4-yl)piperidin-1-yl)-N-(((2-((5-fluoro-4-(4-fluoro-2-methoxyphenyl)pyridin-2-yl)amino)pyridin-4-yl)methyl)(methyl) (oxo)-16-sulfaneylidene) acetamide] | – | – | 0.11 | – | – | – | – | 210 nM | – | – | – | 16 µM and 15.7 µM | IC50 [7, 15]: 0.47 µM; IC50 [7, 16]: 0.55 µM; IC50 ([8]; MOLM13, read-out: potency): 150 nM; IC50 [8, 17]: 180 nM
COc1cc(F)ccc1-c1cc(Nc2cc(CS(C)(=O)=NC(=O)CN3CCC(CN4CCC(COc5cccc6c5C(=O)N(C5CCC(=O)NC5=O)C6=O)CC4)CC3)ccn2)ncc1F (centres unmarked) [Compound 4.78, 2-(4-{[4-({[2-(2,6-dioxopiperidin-3-yl)-1,3-dioxo-2,3-dihydro-1H-isoindol-4-yl]-oxy}methyl)piperidin-1-yl]methyl}piperidin-1-yl)-N-{[(2-{[5-fluoro-4-(4-fluoro-2-methoxyphenyl)pyridin-2-yl]amino}pyridin-4-yl)methyl](methyl)oxo-λ^6-sulfanylidene}acetamide] | – | – | 0.18 | – | – | – | 28.9 µM (≈ 26.4 µg/mL) | 820 nM | 0.52 µM | 0.49 µM | 410 nM | – | –

Source: patent publication US20250236607A1, “CYCLIN-DEPENDENT KINASE 9 (CDK9) DEGRADERS AND METHODS OF USING THEREOF” (OHIO STATE INNOVATION FOUNDATION, priority 2022, published 2025)
